Measurements reported in patent EP1166782A2, “Anti-retroviral pharmaceutical compositions” (Yang, Chi-Chiang, priority 2000, dated 2002).
Like-named read-outs stand apart in the source and are kept apart here.

What was measured:
T cells-tropic (JRCSF) = test: P24 quantification (P24 EIA) in infected PBMCs, JRCSF; type: cell-based, HIV-1; settings: PBMC; for concentrations of the viral P24 antigen, JRCSF(+): (+) original concentration of compound maintained after washing; for concentrations of the viral P24 antigen, JRCSF(-): (-) compound removed after washing
Protocol: (§1) PBMCs were treated with various concentrations of CAPE, MC and PEDMC provided in Example 2 and simultaneously infected with […] and macrophage and T cells dual tropic (89.6) HIV-1 isolates. The next day, the added compounds were removed by washing methods or maintained at the same concentration. Samples were divided into two groups and the upernatants of the culture medium were collected at the 3 and 7 days after infection, respectively. The use of P24 EIA Reagent Kit of Abbott Laboratory compares the concentrations of viral P24 antigen with or without the compounds tested.

cells = test: Cellular activities in microculture tetrazolium (MTT) tests; type: cell-based
Protocol: The cellular activities were tested according to method as described in Alley M.C. et al, Cancer Res. 1988; 48(3):589-601. The principle of the method resides in that live cells can reduce MTT., i.e., 3-[4,5-dimethylthiazol-2-yl]-2,5-diphenyltetrazolium bromide)(tetrazolium salt) to formazan crystal through the dehydrogenase metabolism in Mitochondria. The crystal was dissolved in propanol and OD values were determined at 570 nm. The OD values can indicate the numbers of the live cells. The growth conditions of the cells were observed firstly. The cells were diluted to 2x10^4 cells/ml. 100µl sample taken by micropipet was placed in a 96-well plate. The plate was cultured for 24 hours as 37°C and 100µl of the compounds to be tested, which were prepared in medium, were added in each well. […] After culture for 4 hours, supernatant liquid was absorbed and 100 µl DMSO and 10µl /well was added. Each well was homogeneously mixed. The absorbance was determined at 570 nm.

[1] = system: various HIV isolates (NL-43, JRCSF or 89.6); test: P24 quantification, summary statements over all isolates; type: cell-based, HIV-1
Protocol: as §1

[2] = system: macrophage and T cells dual tropic (89.6); test: P24 quantification (P24 EIA) in infected PBMCs, 89.6; type: cell-based, HIV-1; settings: PBMC; for concentrations of the viral P24 antigen, 89.6(+): (+) original concentration of compound maintained after washing; for concentrations of the viral P24 antigen, 89.6(-): (-) compound removed after washing
Protocol: as §1

[3] = system: Peripheral Blood Mononuclear Cells (PBMC); settings: for The numbers of dead cells in 400 cells' count / % viability: 48 hours; for The numbers of dead cells in 400 cells' count: control 9 dead cells; for % viability: viable cells versus control (391);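 as to all read-outs here: trypan blue dye exclusion, cells stained and counted from quadruplicate dishes, DMSO vehicle kept under 0.5%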
Protocol: Viability of the cells was assayed by the trypan blue dye exclusion method. […] The concentration of DMSO was adjusted to be less than 0.5%. Cells from quadruplicated dishes were washed once with Hank's Balanced Salt Solution (HBSS). According to the process, the floating dead cells will be separated from the live monolayer cells. Then the cells were stained with trypan blue and counted. The total number of viable cells in the control group was considered as 100% viability and the agent-treated cells were compared with the control group for the determination of % viability. The % viability of agent-treated cells was calculated from the total number of viable cells in the control group and in the agent-treated group.

[4] = system: macrophage-tropic (NL-43); test: P24 quantification (P24 EIA) in infected PBMCs, NL-43; type: cell-based, HIV-1; settings: PBMC; for concentrations of the viral P24 antigen, NL43(+): (+) original concentration of compound maintained after washing; for concentrations of the viral P24 antigen, NL43(-): (-) compound removed after washing
Protocol: as §1

SMILES: O=C(/C=C/c1ccc(O)c(O)c1)OCCc1ccccc1 [CAPE, caffeic acid phenethyl ester]
- concentrations of the viral P24 antigen, JRCSF(+) (T cells-tropic (JRCSF); 0.1 µM): 1000 unit
- concentrations of the viral P24 antigen, JRCSF(-) (T cells-tropic (JRCSF); 0.1 µM): 1000 unit
- concentrations of the viral P24 antigen, JRCSF(+) (T cells-tropic (JRCSF); 0.5 µM): 1000 unit
- concentrations of the viral P24 antigen, JRCSF(-) (T cells-tropic (JRCSF); 0.5 µM): 1000 unit
- concentrations of the viral P24 antigen, JRCSF(+) (T cells-tropic (JRCSF); 1 µM): 1000 unit
- concentrations of the viral P24 antigen, JRCSF(-) (T cells-tropic (JRCSF); 1 µM): 1000 unit
- concentrations of the viral P24 antigen, JRCSF(+) (T cells-tropic (JRCSF); 5 µM): 965.62 unit
- concentrations of the viral P24 antigen, JRCSF(-) (T cells-tropic (JRCSF); 5 µM): 1000 unit
- concentrations of the viral P24 antigen, JRCSF(+) (T cells-tropic (JRCSF); 10 µM): 642.72 unit
- concentrations of the viral P24 antigen, JRCSF(-) (T cells-tropic (JRCSF); 10 µM): 34.42 unit
- concentrations of the viral P24 antigen, JRCSF(+) (T cells-tropic (JRCSF); 25 µM): 0 unit
- concentrations of the viral P24 antigen, JRCSF(-) (T cells-tropic (JRCSF); 25 µM): 0 unit
- concentrations of the viral P24 antigen, JRCSF(+) (T cells-tropic (JRCSF); 50 µM): 0 unit
- concentrations of the viral P24 antigen, JRCSF(-) (T cells-tropic (JRCSF); 50 µM): 0 unit
- concentrations of the viral P24 antigen, JRCSF(+) (T cells-tropic (JRCSF); 100 µM): 0 unit
- concentrations of the viral P24 antigen, JRCSF(-) (T cells-tropic (JRCSF); 100 µM): 0 unit
- concentrations of the viral P24 antigen, JRCSF(+) (T cells-tropic (JRCSF); 200 µM): 0 unit
- concentrations of the viral P24 antigen, JRCSF(-) (T cells-tropic (JRCSF); 200 µM): 0 unit
- concentrations of the viral P24 antigen, JRCSF(+) (T cells-tropic (JRCSF); 400 µM): 0 unit
- concentrations of the viral P24 antigen, JRCSF(-) (T cells-tropic (JRCSF); 400 µM): 0 unit
- MTT 24h, cellular activities (cells; 0.1 µM): 97.49 relative percentage
- MTT 48h, cellular activities (cells; 0.1 µM): 87.49 relative percentage
- MTT 24h, cellular activities (cells; 0.5 µM): 104.67 relative percentage
- MTT 48h, cellular activities (cells; 0.5 µM): 97.54 relative percentage
- MTT 24h, cellular activities (cells; 1 µM): 109.25 relative percentage
- MTT 48h, cellular activities (cells; 1 µM): 104.18 relative percentage
- MTT 24h, cellular activities (cells; 5 µM): 102.41 relative percentage
- MTT 48h, cellular activities (cells; 5 µM): 99.74 relative percentage
- MTT 24h, cellular activities (cells; 10 µM): 93.07 relative percentage
- MTT 48h, cellular activities (cells; 10 µM): 94.76 relative percentage
- MTT 24h, cellular activities (cells; 25 µM): 98.65 relative percentage
- MTT 48h, cellular activities (cells; 25 µM): 96.92 relative percentage
- MTT 24h, cellular activities (cells; 50 µM): 95.49 relative percentage
- MTT 48h, cellular activities (cells; 50 µM): 96.42 relative percentage
- MTT 24h, cellular activities (cells; 100 µM): 96.15 relative percentage
- MTT 48h, cellular activities (cells; 100 µM): 94.02 relative percentage
- MTT 24h, cellular activities (cells; 200 µM): 106.8 relative percentage
- MTT 48h, cellular activities (cells; 200 µM): 98.6 relative percentage
- MTT 24h, cellular activities (cells; 400 µM): 108.62 relative percentage
- MTT 48h, cellular activities (cells; 400 µM): 98.9 relative percentage
- cellular activities in MTT tests (result in words) (cells; Figures 1 and 2, 24 and 48 hours): no substantial effects
- viral replications (result in words) ([1]; Figures 3-5, PBMC infected with NL-43, JRCSF or 89.6): significantly inhibited viral replications
- inhibit viral replication ([1]; at the concentration of 100 µM or less, various HIV isolates): 100%
- concentrations of the viral P24 antigen, 89.6(+) ([2]; 0.1 µM): 1000 unit
- concentrations of the viral P24 antigen, 89.6(-) ([2]; 0.1 µM): 1000 unit
- concentrations of the viral P24 antigen, 89.6(+) ([2]; 0.5 µM): 899.22 unit
- concentrations of the viral P24 antigen, 89.6(-) ([2]; 0.5 µM): 949.75 unit
- concentrations of the viral P24 antigen, 89.6(+) ([2]; 1 µM): 643.71 unit
- concentrations of the viral P24 antigen, 89.6(-) ([2]; 1 µM): 1000 unit
- concentrations of the viral P24 antigen, 89.6(+) ([2]; 5 µM): 243.87 unit
- concentrations of the viral P24 antigen, 89.6(-) ([2]; 5 µM): 280.51 unit
- concentrations of the viral P24 antigen, 89.6(+) ([2]; 10 µM): 230.32 unit
- concentrations of the viral P24 antigen, 89.6(-) ([2]; 10 µM): 255.21 unit
- concentrations of the viral P24 antigen, 89.6(+) ([2]; 25 µM): 0 unit
- concentrations of the viral P24 antigen, 89.6(-) ([2]; 25 µM): 182.44 unit
- concentrations of the viral P24 antigen, 89.6(+) ([2]; 50 µM): 0 unit
- concentrations of the viral P24 antigen, 89.6(-) ([2]; 50 µM): 243.53 unit
- concentrations of the viral P24 antigen, 89.6(+) ([2]; 100 µM): 0 unit
- concentrations of the viral P24 antigen, 89.6(-) ([2]; 100 µM): 113.2 unit
- concentrations of the viral P24 antigen, 89.6(+) ([2]; 200 µM): 0 unit
- concentrations of the viral P24 antigen, 89.6(-) ([2]; 200 µM): 0 unit
- concentrations of the viral P24 antigen, 89.6(+) ([2]; 400 µM): 0 unit
- concentrations of the viral P24 antigen, 89.6(-) ([2]; 400 µM): 0 unit
- The numbers of dead cells in 400 cells' count ([3]; 0.1 µM): 11
- % viability ([3]; 0.1 µM): 389/391 (99.5%)
- The numbers of dead cells in 400 cells' count ([3]; 0.5 µM): 9
- % viability ([3]; 0.5 µM): 391/391 (100%)
- The numbers of dead cells in 400 cells' count ([3]; 1 µM): 7
- % viability ([3]; 1 µM): 393/391 (100.5%)
- The numbers of dead cells in 400 cells' count ([3]; 5 µM): 10
- % viability ([3]; 5 µM): 390/391 (99.7%)
- The numbers of dead cells in 400 cells' count ([3]; 10 µM): 10
- % viability ([3]; 10 µM): 390/391 (99.7%)
- The numbers of dead cells in 400 cells' count ([3]; 25 µM): 5
- % viability ([3]; 25 µM): 395/391 (101%)
- The numbers of dead cells in 400 cells' count ([3]; 50 µM): 12
- % viability ([3]; 50 µM): 388/391 (99.2%)
- The numbers of dead cells in 400 cells' count ([3]; 100 µM): 11
- % viability ([3]; 100 µM): 389/391 (99.5%)
- The numbers of dead cells in 400 cells' count ([3]; 200 µM): 7
- % viability ([3]; 200 µM): 393/391 (100.5%)
- The numbers of dead cells in 400 cells' count ([3]; 400 µM): 8
- % viability ([3]; 400 µM): 392/391 (100.3%)
- viabilities of PBMC under high-dose versus low-dose treatments (result in words) ([3]; high dose up to 400 µM compared with 0.1-10 µM): no substantial differences
- concentrations of the viral P24 antigen, NL43(+) ([4]; 0.1 µM): 1000 unit
- concentrations of the viral P24 antigen, NL43(-) ([4]; 0.1 µM): 1000 unit
- concentrations of the viral P24 antigen, NL43(+) ([4]; 0.5 µM): 1000 unit
- concentrations of the viral P24 antigen, NL43(-) ([4]; 0.5 µM): 1000 unit
- concentrations of the viral P24 antigen, NL43(+) ([4]; 1 µM): 1000 unit
- concentrations of the viral P24 antigen, NL43(-) ([4]; 1 µM): 1000 unit
- concentrations of the viral P24 antigen, NL43(+) ([4]; 5 µM): 1000 unit
- concentrations of the viral P24 antigen, NL43(-) ([4]; 5 µM): 1000 unit
- concentrations of the viral P24 antigen, NL43(+) ([4]; 10 µM): 990.64 unit
- concentrations of the viral P24 antigen, NL43(-) ([4]; 10 µM): 1000 unit
- concentrations of the viral P24 antigen, NL43(+) ([4]; 25 µM): 975.64 unit
- concentrations of the viral P24 antigen, NL43(-) ([4]; 25 µM): 988.28 unit
- concentrations of the viral P24 antigen, NL43(+) ([4]; 50 µM): 166.12 unit
- concentrations of the viral P24 antigen, NL43(-) ([4]; 50 µM): 865.44 unit
- concentrations of the viral P24 antigen, NL43(+) ([4]; 100 µM): 0 unit
- concentrations of the viral P24 antigen, NL43(-) ([4]; 100 µM): 62.26 unit
- concentrations of the viral P24 antigen, NL43(+) ([4]; 200 µM): 0 unit
- concentrations of the viral P24 antigen, NL43(-) ([4]; 200 µM): 0 unit
- concentrations of the viral P24 antigen, NL43(+) ([4]; 400 µM): 0 unit
- concentrations of the viral P24 antigen, NL43(-) ([4]; 400 µM): 0 unit
